ChEMBL document CHEMBL5212743, “Selectivity Literature for EUbOPEN Chemogenomics Library wave 3” (2023)
pKd, pKi: −log10 of the molar value.

Key:
[1] = target: Melatonin receptor type 1A (Homo sapiens) (UniProt P48039); test: Selectivity interaction (CEREP panel (Eurofins, radioligand binding assay, enzymes, GPCRS, transporters, and ion channels)) EUB0000308b MTNR1A; settings: at 10 µM
[2] = target: Sodium-dependent noradrenaline transporter (Homo sapiens, UniProt P23975); test: Selectivity interaction (CEREP panel (Eurofins, radioligand binding assay, enzymes, GPCRS, transporters, and ion channels)) EUB0000308b SLC6A2; settings: at 10 µM
[3] = target: Sodium-dependent dopamine transporter (Homo sapiens, UniProt Q01959); test: Selectivity interaction (CEREP panel (Eurofins, radioligand binding assay, enzymes, GPCRS, transporters, and ion channels)) EUB0000308b SLC6A3; settings: at 10 µM
[4] = target: Sigma non-opioid intracellular receptor 1 (Homo sapiens, UniProt Q99720); test: Selectivity interaction (GPCR panel (PDSP screen)) EUB0000308b SIGMAR1
[5] = target: T1, Serine/threonine-protein kinase ULK2 (Homo sapiens) (UniProt Q8IYT8); test: Selectivity interaction (KinomeScan (DiscoverX)) EUB0000308b ULK2; settings: at 1 µM
T1 sequence (whole entry): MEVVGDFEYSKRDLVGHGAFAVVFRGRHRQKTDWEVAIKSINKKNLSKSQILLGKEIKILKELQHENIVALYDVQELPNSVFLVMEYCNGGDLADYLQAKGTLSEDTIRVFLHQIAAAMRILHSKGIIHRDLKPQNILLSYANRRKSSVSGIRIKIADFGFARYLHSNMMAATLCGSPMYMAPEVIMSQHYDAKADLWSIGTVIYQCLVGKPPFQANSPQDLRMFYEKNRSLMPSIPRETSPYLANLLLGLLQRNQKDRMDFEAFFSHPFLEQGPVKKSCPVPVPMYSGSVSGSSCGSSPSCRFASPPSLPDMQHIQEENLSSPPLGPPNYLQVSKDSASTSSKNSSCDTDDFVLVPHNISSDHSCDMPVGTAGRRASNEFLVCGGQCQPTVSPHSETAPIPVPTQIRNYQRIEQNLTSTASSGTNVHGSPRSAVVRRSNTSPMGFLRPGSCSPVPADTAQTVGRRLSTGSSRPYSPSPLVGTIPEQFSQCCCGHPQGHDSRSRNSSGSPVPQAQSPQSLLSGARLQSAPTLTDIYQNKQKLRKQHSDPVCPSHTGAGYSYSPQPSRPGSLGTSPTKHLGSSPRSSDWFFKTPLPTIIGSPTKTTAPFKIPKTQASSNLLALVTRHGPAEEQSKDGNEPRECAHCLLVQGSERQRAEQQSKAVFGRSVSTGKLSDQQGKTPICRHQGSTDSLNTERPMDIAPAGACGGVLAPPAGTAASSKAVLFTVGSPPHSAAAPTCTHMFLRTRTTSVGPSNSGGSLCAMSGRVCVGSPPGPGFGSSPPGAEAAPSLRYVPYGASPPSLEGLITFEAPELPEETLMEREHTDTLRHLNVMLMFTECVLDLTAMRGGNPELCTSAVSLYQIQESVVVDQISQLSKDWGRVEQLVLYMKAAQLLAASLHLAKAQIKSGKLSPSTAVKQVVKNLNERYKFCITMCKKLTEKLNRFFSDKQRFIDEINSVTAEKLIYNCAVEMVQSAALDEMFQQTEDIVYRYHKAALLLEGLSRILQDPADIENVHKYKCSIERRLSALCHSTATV

[6] = target: Mitogen-activated protein kinase 8 (Homo sapiens, UniProt P45983); test: Selectivity interaction (KinomeScan (DiscoverX, competition-binding assay)) EUB0000353a MAPK8
[7] = target: Mitogen-activated protein kinase 10 (Homo sapiens, UniProt P53779); test: Selectivity interaction (KinomeScan (DiscoverX, competition-binding assay)) EUB0000353a MAPK10
[8] = target: Tyrosine-protein kinase BTK (Homo sapiens, UniProt Q06187); test: Selectivity interaction (KinomeScan (DiscoverX, competition-binding assay)) EUB0000353a BTK
Sequence of Tyrosine-protein kinase BTK (Q06187 whole entry): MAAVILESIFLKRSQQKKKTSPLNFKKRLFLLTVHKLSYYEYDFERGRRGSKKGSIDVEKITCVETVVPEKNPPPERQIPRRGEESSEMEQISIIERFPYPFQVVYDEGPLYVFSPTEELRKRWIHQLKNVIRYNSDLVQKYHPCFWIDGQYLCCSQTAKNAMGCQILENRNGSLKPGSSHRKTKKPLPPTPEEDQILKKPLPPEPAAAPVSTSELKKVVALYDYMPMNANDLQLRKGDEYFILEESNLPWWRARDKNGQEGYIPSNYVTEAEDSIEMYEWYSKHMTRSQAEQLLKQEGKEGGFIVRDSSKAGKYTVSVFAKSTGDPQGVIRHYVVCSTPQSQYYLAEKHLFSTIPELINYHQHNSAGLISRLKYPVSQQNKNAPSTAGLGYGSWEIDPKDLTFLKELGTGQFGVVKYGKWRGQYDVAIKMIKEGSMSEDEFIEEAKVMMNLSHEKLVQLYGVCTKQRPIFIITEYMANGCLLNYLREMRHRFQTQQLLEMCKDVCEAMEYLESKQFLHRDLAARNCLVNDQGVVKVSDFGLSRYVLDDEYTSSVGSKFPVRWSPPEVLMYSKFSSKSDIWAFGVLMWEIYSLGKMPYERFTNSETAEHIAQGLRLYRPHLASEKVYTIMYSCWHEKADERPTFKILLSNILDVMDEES

Sequence of Sigma non-opioid intracellular receptor 1 (Q99720 whole entry): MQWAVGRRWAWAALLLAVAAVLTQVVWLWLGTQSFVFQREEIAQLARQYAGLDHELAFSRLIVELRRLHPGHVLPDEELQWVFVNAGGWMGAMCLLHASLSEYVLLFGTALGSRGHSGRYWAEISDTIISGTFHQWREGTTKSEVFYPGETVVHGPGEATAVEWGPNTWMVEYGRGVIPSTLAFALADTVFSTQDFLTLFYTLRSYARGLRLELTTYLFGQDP
Sequence of Sodium-dependent dopamine transporter (Q01959 whole entry): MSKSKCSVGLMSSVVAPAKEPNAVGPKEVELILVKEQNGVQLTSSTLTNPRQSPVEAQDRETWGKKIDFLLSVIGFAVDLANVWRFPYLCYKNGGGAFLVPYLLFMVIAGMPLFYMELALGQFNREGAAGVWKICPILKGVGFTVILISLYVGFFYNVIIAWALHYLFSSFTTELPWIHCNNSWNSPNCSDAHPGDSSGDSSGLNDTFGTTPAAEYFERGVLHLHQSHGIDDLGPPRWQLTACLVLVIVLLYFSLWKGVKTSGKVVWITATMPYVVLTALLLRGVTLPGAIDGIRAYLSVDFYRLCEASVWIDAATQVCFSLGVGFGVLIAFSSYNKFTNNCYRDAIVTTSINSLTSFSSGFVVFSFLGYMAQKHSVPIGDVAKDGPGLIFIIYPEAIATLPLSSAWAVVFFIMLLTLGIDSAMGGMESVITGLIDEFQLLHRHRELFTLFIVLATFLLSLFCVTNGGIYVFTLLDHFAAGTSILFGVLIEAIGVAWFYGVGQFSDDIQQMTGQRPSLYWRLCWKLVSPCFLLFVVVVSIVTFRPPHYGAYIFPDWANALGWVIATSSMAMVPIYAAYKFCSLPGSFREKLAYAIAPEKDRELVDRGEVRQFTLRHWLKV
Sequence of Mitogen-activated protein kinase 8 (P45983 whole entry): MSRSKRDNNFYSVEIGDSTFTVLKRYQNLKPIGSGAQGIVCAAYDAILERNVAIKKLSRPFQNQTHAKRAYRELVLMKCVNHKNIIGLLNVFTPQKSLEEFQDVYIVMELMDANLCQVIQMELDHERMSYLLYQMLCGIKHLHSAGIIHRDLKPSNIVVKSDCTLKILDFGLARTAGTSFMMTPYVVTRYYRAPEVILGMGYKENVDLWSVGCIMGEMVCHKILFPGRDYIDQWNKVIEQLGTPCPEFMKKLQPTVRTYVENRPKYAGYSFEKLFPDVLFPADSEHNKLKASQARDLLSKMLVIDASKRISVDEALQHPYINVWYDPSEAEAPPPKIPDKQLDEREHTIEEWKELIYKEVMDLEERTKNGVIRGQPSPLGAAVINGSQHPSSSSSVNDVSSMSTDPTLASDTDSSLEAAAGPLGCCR
Sequence of Melatonin receptor type 1A (Homo sapiens) (P48039 whole entry): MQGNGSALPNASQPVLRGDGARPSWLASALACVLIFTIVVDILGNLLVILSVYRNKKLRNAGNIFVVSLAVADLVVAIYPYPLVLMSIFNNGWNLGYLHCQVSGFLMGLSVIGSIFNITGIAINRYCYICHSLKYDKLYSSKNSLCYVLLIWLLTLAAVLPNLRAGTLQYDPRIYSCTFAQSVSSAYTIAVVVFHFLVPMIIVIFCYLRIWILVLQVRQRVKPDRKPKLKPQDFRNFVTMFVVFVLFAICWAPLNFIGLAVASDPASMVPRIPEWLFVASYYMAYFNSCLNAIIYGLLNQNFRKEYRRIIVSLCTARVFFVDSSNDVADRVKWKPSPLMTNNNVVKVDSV
Sequence of Mitogen-activated protein kinase 10 (P53779 whole entry): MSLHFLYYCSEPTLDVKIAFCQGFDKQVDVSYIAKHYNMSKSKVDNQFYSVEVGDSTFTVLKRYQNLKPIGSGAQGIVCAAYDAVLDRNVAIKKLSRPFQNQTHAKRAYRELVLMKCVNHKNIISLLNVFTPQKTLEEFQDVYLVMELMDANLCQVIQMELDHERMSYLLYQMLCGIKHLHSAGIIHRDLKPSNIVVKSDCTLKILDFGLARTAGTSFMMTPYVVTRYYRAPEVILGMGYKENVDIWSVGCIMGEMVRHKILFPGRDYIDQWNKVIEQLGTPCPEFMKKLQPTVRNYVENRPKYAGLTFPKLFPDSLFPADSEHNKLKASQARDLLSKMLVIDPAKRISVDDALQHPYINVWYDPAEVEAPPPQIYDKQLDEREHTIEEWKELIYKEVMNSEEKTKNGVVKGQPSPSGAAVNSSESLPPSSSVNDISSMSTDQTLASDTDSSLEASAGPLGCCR
Sequence of Sodium-dependent noradrenaline transporter (P23975 whole entry): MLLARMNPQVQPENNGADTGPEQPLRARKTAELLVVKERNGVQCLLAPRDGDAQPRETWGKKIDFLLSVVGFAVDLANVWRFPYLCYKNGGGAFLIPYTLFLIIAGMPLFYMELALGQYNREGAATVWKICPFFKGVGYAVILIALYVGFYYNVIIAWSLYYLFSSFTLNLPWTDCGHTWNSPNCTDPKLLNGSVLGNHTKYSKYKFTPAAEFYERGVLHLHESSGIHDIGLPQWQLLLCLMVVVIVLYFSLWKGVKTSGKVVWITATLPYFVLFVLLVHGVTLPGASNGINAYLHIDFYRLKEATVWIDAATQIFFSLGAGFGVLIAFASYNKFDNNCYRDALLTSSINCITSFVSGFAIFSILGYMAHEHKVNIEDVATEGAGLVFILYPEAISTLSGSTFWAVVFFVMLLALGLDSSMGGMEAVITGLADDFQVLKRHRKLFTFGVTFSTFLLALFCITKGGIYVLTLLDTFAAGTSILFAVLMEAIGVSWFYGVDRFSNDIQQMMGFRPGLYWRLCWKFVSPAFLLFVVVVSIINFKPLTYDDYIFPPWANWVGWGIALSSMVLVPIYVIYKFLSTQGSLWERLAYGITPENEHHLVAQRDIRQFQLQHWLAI

| % of inhibition [1] | % of inhibition [2] | % of inhibition [3] | pKi [4] | % of control [5] | pKd [6] | pKd [7] | pKd [8] | SMILES |
| --- | --- | --- | --- | --- | --- | --- | --- | --- |
| 31% | 32% | 43% | 6.30 | 46% |  |  |  | Clc1cccc(-c2nnnn2Cc2cccnc2)c1Cl |
|  |  |  |  |  | 4.72 | < 4.52 | 4.57 | CN(C)[C@@H]1CCN(c2cc(-c3ccccc3)nc3ccnn23)C1 [(R)-ZINC-3573] |
